Reference: US7875638B2, “Synthesis of epothilones, intermediates thereto, analogues and uses thereof” (Sloan-Kettering Institute for Cancer Research, priority 2002, dated 2011)

Experiments:
[1] = Octanol-water partition (POW) number by HPLC; assay type: physicochemical; details: HPLC estimate, pH 7.4 buffer; read-out: Lipophilicity octanol/water partition (POW)
Experimental: Determination of partition of octanol-water (POW) number. An HPLC method is used to estimate octanol-water partition. An Agilent 1100 HPLC system is used with an eclipse XDB C18 column 4.6×250 mm with a mobile phase of 60% acetonitrile/40% 25 mM potassium phosphate buffer at pH 7.4 with a flow rate of 0.8 ml per min. and the eluent is monitored at 250 nm. The standards used are benzyl alcohol, acetophenone, benzophenone, naphthalene, diphenyl ether and dibenzyl with known POW of […] respectively. Sodium dichromate is used to evaluate time zero which is 2.5 min and the retention times for the standards are 3.9, 5.4, 10.6, 14, 18.7 and 19.8 min, respectively. The k value is calculated by the formula of k=(trt−t0)/t0. Linear regression of log k vs. log POW gives a straight line with r^2=0.966. This graph is used to evaluate the POW value of the epothilone analogs.

[2] = test system: human lung carcinoma xenograft (A549); assay: A549 xenograft in nude mice
[3] = in vitro; details: human, s9
Experimental: (§1) Stability of epothilones in mouse and in human liver S9 fraction. The stability study was carried out with a fully automated HPLC system which consisted of a Prospekt-2 (Spark Holland, Netherlands) sample preparation system and an Agilent 1100 HPLC system. Briefly, the Prospekt 2 picked up a C8 extraction cartridge and washed it with acetonitrile and water. The Agilent autosampler, set at 37° C., picked up 20 μl of the sample, loaded it onto the cartridge, washed it with water, then the Prospekt-2 diverted the mobile phase stream through the extraction cartridge onto the analytical column, Reliance Stable Bond C8 4×80 mm with guard column (MacMod, Chadds Ford, Pa.) and the eluent was monitored at 250 nm. […] Sample preparation involved the addition of equal volumes of plasma to PBS for a total volume of 300-400 μl, filtered, and the addition of 0.5-2 μl of the substrate (20 mM) to achieve about 30-50 mAU at 250 nm in the HPLC analysis. For pooled human liver microsome S9 fraction (Xeno Tech, Lenex, Kans.), 20 μl (400 μg) or S9 fraction was mixed with 280 μl of PBS then proceeded as above. The sampling period was controlled by the autosampler and peak area data were collected to compare the rate of disappearance of the parent compound.
(§2) Stability of epothilones in mouse and in human liver S9 fraction: The stability study was carried out with a fully automated HPLC system which consisted of a Prospekt-2 (Spark Holland, Netherlands) sample preparation system and an Agilent 1100 HPLC system. Briefly, the Prospekt 2 picked up a C8 extraction cartridge and washed it with acetonitrile and water. The Agilent autosampler, set at 37° C., picked up 20 μl of the sample, loaded it onto the cartridge, washed it with water, then the Prospekt-2 diverted the mobile phase stream through the extraction cartridge onto the analytical column, Reliance Stable Bond C8 4×80 mm with guard column (MacMod, Chadds Ford, Pa.) and the eluent was monitored at 250 nm. […] Sample preparation involves the addition of equal volumes of plasma to PBS for a total volume of 400 μl, filtered, and the addition of 0.5-2 μl of the substrate (20 mM) to achieve about 30-50 mAU at 250 nm in the HPLC analysis. For pooled human liver microsome S9 fraction (Xeno Tech, Lenex, Kans.), 20 μl (400 μg) or S9 fraction was mixed with 280 μl of PBS then proceeds as above. The sampling period was controlled by the autosampler and peak area data were collected to compare the rate of disappearance of the parent compound.

[4] = test system: paclitaxel resistant human lung carcinoma A549/Taxol xenograft; assay: A549/Taxol xenograft in nude mice
[5] = in vitro; details: mouse, plasma
Experimental: as §1, §2

[6] = test system: RPMI-8226 (human multiple myeloma cell line); assay: Global gene expression (Affymetrix chip AU133 2.0); assay type: cell-based
[7] = 6 hr gene difference, Fludelone vs dEpoB treated cells

Compound: C/C(=C\c1csc(C)n1)[C@@H]1C/C=C(/C(F)(F)F)C/C=C/[C@H](C)[C@H](O)[C@@H](C)C(=O)C(C)(C)[C@@H](O)CC(=O)O1 [Compound 29, 26-trifluoro-trans-9,10-dehydro-12,13-desoxyepothilone B]
- chromatographic logP [1]: 3.3
- Body weight decrease without lethality ([2]; 25 mg/kg, Q2DX6, twice): ≤ 35%
- Tumor eradication ([2]; 29: after two more doses, dEpoB: 30 mg/kg, Q2Dx6): 4 of the 4
- half-life [3]: 10.5 ± 2.3 h
- Body weight recovery upon suspension of drug treatment, % of the pretreatment control ([4]; 20 mg/kg): 90%
- Maximal body weight decrease ([4]; 20 mg/kg): 24%
- Tumor growth suppression ([4]; 29: 20 mg/kg, 28: 4 mg/kg): totally suppressed
- half-life [5]: 3.53 ± 1.47 h
- Fold change in expression, APP ([6]; 6 h): +2.14 fold
- Fold change in expression, BASP1 ([6]; 6 h): +2.83 fold
- Fold change in expression, HIST1 ([6]; 6 h): −2.00 fold
- Fold change in expression, HNRPD ([6]; 6 h): −2.46 fold
- Fold change in expression, JUN ([6]; 6 h): +3.25 fold
- Fold change in expression, SKIL ([6]; 6 h): +2.83 fold
- Fold change in expression, SUV39 H2 ([6]; 6 h): −2.00 fold
- Fold change, AIM2 ([6]; 6 h): −2.64 fold
- Fold change, BCL3 ([6]; 6 h): +3.25 fold
- Fold change, CA4 ([6]; 6 h): −2.14 fold
- Fold change, HLA-II DPα ([6]; 6 h): −3.73 fold
- Fold change, Heme oxygenase ([6]; 6 h): +2.30 fold
- Fold change, PTPL ([6]; 6 h): −2.46 fold
- Fold change, T RIM34 ([6]; 6 h): −5.66 fold
- Fold change, TRIM22 ([6]; 6 h): −2.46 fold
- Fold change, GIP3 [6, 7]: −6.06 fold
- Fold change, IFI 27 [6, 7]: −7.46 fold
- Fold change, IFTM1 [6, 7]: −4.00 fold
- Fold change, MX1 [6, 7]: −2.00 fold
- Fold change in expression, AIP1 ([6]; 18 h): +2.14 fold
- Fold change in expression, AKAP9 ([6]; 18 h): +2.00 fold
- Fold change in expression, APBB2 ([6]; 18 h): +2.00 fold
- Fold change in expression, APG16L ([6]; 18 h): +2.00 fold
- Fold change in expression, APRIN ([6]; 18 h): +2.00 fold
- Fold change in expression, BAX ([6]; 18 h): +2.00 fold
- Fold change in expression, CCL3 ([6]; 18 h): +3.48 fold
- Fold change in expression, CCT8 ([6]; 18 h): +2.30 fold
- Fold change in expression, CD72 ([6]; 18 h): +2.30 fold
- Fold change in expression, CEB1 ([6]; 18 h): −2.30 fold
- Fold change in expression, CLorf29 ([6]; 18 h): −6.06 fold
- Fold change in expression, Cyclin E2 ([6]; 18 h): −2.64 fold
- Fold change in expression, DNAJB1 ([6]; 18 h): +2.30 fold
- Fold change in expression, DUSP6 ([6]; 18 h): −2.14 fold
- Fold change in expression, EIFA1 ([6]; 18 h): +2.30 fold
- Fold change in expression, ETS2 ([6]; 18 h): +2.46 fold
- Fold change in expression, F11 ([6]; 18 h): −4.00 fold
- Fold change in expression, FBXO5 ([6]; 18 h): −2.30 fold
- Fold change in expression, FLJ20045 ([6]; 18 h): −2.46 fold
- Fold change in expression, FLJ20130 ([6]; 18 h): −5.66 fold
- Fold change in expression, FLJ20241 ([6]; 18 h): +3.73 fold
- Fold change in expression, Fibrillin 2 ([6]; 18 h): +12.3 fold
- Fold change in expression, GA17 ([6]; 18 h): +2.64 fold
- Fold change in expression, GTF2H2 ([6]; 18 h): +3.03 fold
- Fold change in expression, HDAC9 ([6]; 18 h): −2.00 fold
- Fold change in expression, HNRPD ([6]; 18 h): −3.25 fold
- Fold change in expression, HSPA1A ([6]; 18 h): +2.14 fold
- Fold change in expression, HSPA1B ([6]; 18 h): +2.00 fold
- Fold change in expression, JUN ([6]; 18 h): +2.64 fold
- Fold change in expression, KIAA0191 protein ([6]; 18 h): +2.14 fold
- Fold change in expression, KIAA1025 protein ([6]; 18 h): +3.25 fold
- Fold change in expression, MADH1 ([6]; 18 h): +2.00 fold
- Fold change in expression, MARS ([6]; 18 h): −2.00 fold
- Fold change in expression, NRTN ([6]; 18 h): −2.3 fold
- Fold change in expression, PCNX ([6]; 18 h): +3.48 fold
- Fold change in expression, PHC3 ([6]; 18 h): +2.83 fold
- Fold change in expression, PKD1 ([6]; 18 h): +7.46 fold
- Fold change in expression, POU4F1 ([6]; 18 h): −2.14 fold
- Fold change in expression, PRKCBP1 ([6]; 18 h): +2.64 fold
- Fold change in expression, PRKDC ([6]; 18 h): +21.11 fold
- Fold change in expression, REPS1 ([6]; 18 h): +9.85 fold
- Fold change in expression, RPL23 ([6]; 18 h): +2.14 fold
- Fold change in expression, SEC24D ([6]; 18 h): +2.64 fold
- Fold change in expression, SEMA3D ([6]; 18 h): +2.83 fold
- Fold change in expression, SERPINH1 ([6]; 18 h): +2.00 fold
- Fold change in expression, SLC13A1 ([6]; 18 h): +3.03 fold
- Fold change in expression, SMA3 ([6]; 18 h): +2.46 fold
